Experimental data from PMC11894153, “c-di-GMP inhibits rRNA methylation and impairs ribosome assembly in the presence of kanamycin” (EMBO Reports, 2025).
Where a chain is given by its changes, count along the chain named.

What was measured:
RlmI [1] = target: T1, RlmI (Escherichia coli, UniProt P75876); experiment: ITC; assay type: binding
T1 construct: pCA24N or pGEX4T-1 plasmid; His tag detected by anti-His; purified
T1 sequence (P75876 1-396): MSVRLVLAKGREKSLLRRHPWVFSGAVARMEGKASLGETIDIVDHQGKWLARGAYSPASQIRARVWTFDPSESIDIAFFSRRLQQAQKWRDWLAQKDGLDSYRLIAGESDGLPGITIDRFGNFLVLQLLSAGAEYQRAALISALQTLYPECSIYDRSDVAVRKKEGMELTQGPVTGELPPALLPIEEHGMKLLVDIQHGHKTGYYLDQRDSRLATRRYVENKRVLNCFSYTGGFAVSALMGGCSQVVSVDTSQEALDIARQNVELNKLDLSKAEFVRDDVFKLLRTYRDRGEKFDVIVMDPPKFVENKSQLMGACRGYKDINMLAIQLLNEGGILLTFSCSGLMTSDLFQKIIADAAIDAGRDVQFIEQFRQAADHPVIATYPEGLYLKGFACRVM

RlmI [2] = target: T1, RlmI; experiment: in vitro rRNA methylation, HPLC; assay type: biochemical
RlmI [3] = target: T2, RlmI (Escherichia coli, UniProt P75876, K201A); experiment: ITC; assay type: binding
T2 construct: pCA24N or pGEX4T-1 plasmid; His tag detected by anti-His; purified
T2 sequence (P75876 1-396 K201A): T1 sequence (P75876 1-396) with K201A

RlmE = target: T3, RlmE (Escherichia coli, UniProt P0C0R7); experiment: in vitro rRNA methylation, HPLC; assay type: biochemical
T3 construct: pCA24N or pGEX4T-1 plasmid; purified
T3 sequence (P0C0R7 1-209): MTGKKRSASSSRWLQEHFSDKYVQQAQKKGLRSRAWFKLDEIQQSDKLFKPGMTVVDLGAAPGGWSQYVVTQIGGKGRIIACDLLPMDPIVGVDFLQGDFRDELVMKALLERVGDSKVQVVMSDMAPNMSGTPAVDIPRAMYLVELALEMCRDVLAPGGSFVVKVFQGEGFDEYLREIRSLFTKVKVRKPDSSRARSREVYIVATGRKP

RlmI [4] = target: T4, RlmI (Escherichia coli, UniProt P75876, G114A); experiment: ITC; assay type: binding
T4 construct: pCA24N or pGEX4T-1 plasmid; His tag detected by anti-His; purified
T4 sequence (P75876 1-396 G114A): T1 sequence (P75876 1-396) with G114A

RlmI [5] = target: T5, RlmI (Escherichia coli, UniProt P75876, R103A); experiment: ITC; assay type: binding
T5 construct: pCA24N or pGEX4T-1 plasmid; His tag detected by anti-His; purified
T5 sequence (P75876 1-396 R103A): T1 sequence (P75876 1-396) with R103A

RlmI [6] = target: T6, RlmI (Escherichia coli, UniProt P75876, R64A); experiment: ITC; assay type: binding
T6 construct: pCA24N or pGEX4T-1 plasmid; His tag detected by anti-His; purified
T6 sequence (P75876 1-396 R64A): T1 sequence (P75876 1-396) with R64A

Compound: Nc1nc2c(ncn2[C@@H]2O[C@@H]3CO[P@](=O)(O)O[C@H]4[C@@H](O)[C@H](n5cnc6c(=O)[nH]c(N)nc65)O[C@@H]4CO[P@](=O)(O)O[C@H]3[C@H]2O)c(=O)[nH]1 [c-di-GMP]
- Kd (RlmI [1]): 1.3 µM
- inhibition at 5 µM (RlmI [2]): 49%
- Kd (RlmI [3]): 401 µM
- inhibition at 5 µM (RlmE): 31%
- Kd (RlmI [4]): 149 µM
- Kd (RlmI [5]): 76.5 µM
- Kd (RlmI [6]): 102 µM
